# Measured values: patent US8802595B2, “Use of prolines for improving growth and/or yield” (Los Alamos National Security, LLC, priority 2005, dated 2014)
# Tests used:
# Assay type in all cases: in vivo
# [1] = tested on: oats; test: Oat tillers with flag leaves emerged at day 28 post-treatment (Example 2)
# From the text: The oats from example 1 were also monitored for their number of tillers with flag leaves emerged at day 28 post-treatment. This parameter relates to potential for grain yield. Table 2 contains the resultant tillers with flag leaves at 28 days for the same series of isomer mixtures.
# [2] = tested on: Commercial field grown wheat; test: Grain yield of field grown wheat sprayed at flag leaf stage (Example 5); conditions: wheat sprayed one time at flag leaf stage, harvested at maturity
# From the text: Commercial field grown wheat was sprayed one time with the pyroglutamate composition (isomer ratio 85:15 of L:D) at the flag leaf stage using the same treatment solution as described in our other plant treatments. Grain was harvested at maturity; the treated plots yielded 0.65 T/hectare more (7% increase) grain (seed) than the untreated plots.
# [3] = tested on: Commercial field grown table grapes; test: Yield of field grown table grapes sprayed twice (Example 6); conditions: 25 gm per acre
# From the text: Commercial field grown table grapes were at sprayed twice the first time at 6-12″ of new vine growth and the second spraying 2 months later. The pyroglutamate composition (isomer ratio 85:15 of L:D) was applied at a rate of 25 gm per acre.
# [4] = tested on: oats; test: Mitigation by pyroglutamate of 2,4-D-induced stress in oats (Example 7); conditions: oat seedlings in greenhouse, 2,4-D at ¼ field strength, pyroglutamate 13.5 g/L, with surfactant/wetting agent
# Protocol: A test was conducted to measure mitigation by pyroglutamate of 2,4-D-induced stress in a monocotyledonous crop plant, oats.
# Growing oat plants were treated with a mixture of pyroglutamate (isomer ratio 85:15 of L:D) and 2,4-D and their growth monitored. Oat seedlings, growing vigorously in a greenhouse, were treated with a mixture of 2,4-D and pyroglutamate (13.5 g/L). The 2,4-D was included in the mixture at ¼ of the recommended field strength; a surfactant/wetting agent (Gly Surf P) was also used. The treatment solution was applied with a backpack R&D sprayer using 2 passes over the plants to assure that all plants received treatment solution. It was estimated that this simulated a ½ strength field dose. These plants were compared with plants treated with the herbicide and surfactant/wetting agent as well as with controls treated only with the surfactant/wetting agent (controls).
# [5] = tested on: white clover; test: Herbicidal killing rate on white clover (Example 8); conditions: recommended field strength application, 25 plants each treatment
# Protocol: (§1) Two dicotyledenous plants, white clover and morning glory were treated with the manufacturer's recommended field strength application and the killing rate was measured. Growing morning glory and clover plants (25 each treatment) treated with either 2,4-D alone or a mixture of 2,4-D and pyroglutamate were killed with the same efficacy, 100%.
# [6] = tested on: morning glory; test: Herbicidal killing rate on morning glory (Example 8); conditions: recommended field strength application, 25 plants each treatment
# Protocol: as §1
compound,measurement,setting,value
"O=C(O)[C@@H]1CCC(O)=N1 [Series 6, pyroglutamate]",Tillers with flag leaves,[1]; listed as 6,37
"O=C(O)[C@@H]1CCC(O)=N1 [Series 3, pyroglutamate]",Tillers with flag leaves,[1]; listed as 3,17
"O=C(O)[C@@H]1CCC(O)=N1 [Series 1, pyroglutamate]",Tillers with flag leaves,[1]; listed as 1,20
"O=C(O)[C@@H]1CCC(O)=N1 [Series 2, pyroglutamate, reference compound]",Tillers with flag leaves,[1]; listed as 2,24
"O=C(O)[C@@H]1CCC(O)=N1 [Series 5, pyroglutamate]",Tillers with flag leaves,[1]; listed as 5,33
"O=C(O)[C@@H]1CCC(O)=N1 [pyroglutamate composition (isomer ratio 85:15 of L:D), pyroglutamate]",grain (seed) yield more than untreated plots,[2],0.65 T/hectare
same,increase in grain yield versus untreated plots,[2],7%
same,greater yield of harvestable grapes than untreated plots,[3],13.5%
same,yield of harvestable grapes,[3],1045 standard boxes
"O=C(O)[C@@H]1CCC(O)=N1 [Series 9, pyroglutamate]",Tillers with flag leaves,[1]; listed as 9,23
"O=C(O)[C@@H]1CCC(O)=N1 [Series 12, pyroglutamate]",Tillers with flag leaves,[1]; listed as 12,24
"O=C(O)[C@@H]1CCC(O)=N1 [Series 7, pyroglutamate]",Tillers with flag leaves,[1]; listed as 7,29
"O=C(O)[C@@H]1CCC(O)=N1 [Series 8, pyroglutamate]",Tillers with flag leaves,[1]; listed as 8,31
"O=C(O)[C@@H]1CCC(O)=N1 [Series 11, pyroglutamate]",Tillers with flag leaves,[1]; listed as 11,26
"O=C(O)[C@@H]1CCC(O)=N1 [Series 4, pyroglutamate]",Tillers with flag leaves,[1]; listed as 4,34
"O=C(O)COc1ccc(Cl)cc1Cl [2,4-D, 2,4-dichlorophenoxy acetic acid]",average plant fresh weight,[4],2.29 g
same,killing efficacy,[5],100%
same,killing efficacy,[6],100%
"O=C(O)[C@@H]1CCC(O)=N1 [Series 10, pyroglutamate]",Tillers with flag leaves,[1]; listed as 10,22
